{"source": "patent US20040223932A1", "about": "“Adhesive treatment for acne” (Closure Medical Corporation, priority 2003, published 2004)", "assay": "Observation of the monomer composition after preparation (clarity, solubility, premature polymerization)", "assay_type": "physicochemical", "conditions": "2 wt % in 2-octyl cyanoacrylate monomer", "excerpt": "The characteristics of the composition are observed at about one minute after preparation and later at least twenty-four hours after preparation.", "data": [{"smiles": "O=C(O)c1ccccc1O", "note": "[salicylic acid]", "values": [{"measurement": "solubility in the monomer", "setting": "inferred from clear solution", "result": "soluble"}, {"measurement": "premature polymerization of the monomer", "setting": "up to at least twenty-four hours", "result": "does not cause premature polymerization"}]}]}
